Article PMC9574867, “Discovery and Characterization of Synthesized and FDA-Approved Inhibitors of Clostridial and Bacillary Collagenases” (Journal of Medicinal Chemistry, 2022)
Values after ≈ are worked out from the molar mass of the structure shown. “Also recorded” adds a separate entry of the source. Like-named read-outs stand apart in the source and are kept apart here.

What was measured:
ColH = conditions: Figure 1b, cited from earlier work
[1] = tested on: NHDF cells infected with B. cereus; assay: NHDF infection model, cell morphology/attachment and fibrillar collagen (picrosirius red); assay type: cell-based, human
B. cereus AH187 = assay: B. cereus growth inhibition assay; assay type: cell-based; conditions: Bacillus cereus, read-out: MIC50 (µM) AH187
ColQ1-FL = ColQ1-FL (Bacillus cereus, UniProt B9J3S4); assay type: biochemical; conditions: 12.5–1.5 μM tested, SDS-PAGE
[2] = tested on: B. cereus collagenases released in the NHDF infection model; assay type: cell-based, B. cereus AH187
[3] = tested on: MDCK II cells infected with B. cereus AH187; assay type: cell-based, canine
ColQ1-CU [4] = biological target: T1, ColQ1-CU (Bacillus cereus, UniProt B9J3S4); assay: biochemical; parameters: species or system B. cereus strain Q1
in vitro [5] = conditions: human, NHDF cells (normal human dermal fibroblasts)
in vitro [6] = conditions: dog, MDCK II cells (Madin–Darby canine kidney II)
HDAC-3 = HDAC-3 (Homo sapiens, UniProt O15379); assay: Human off-target inhibition, HDAC-3; assay type: biochemical
Method: (§1) To assess the selectivity of the compounds over human MMPs and on other bacterial collagenases, selected compounds were tested against ColG-CU and ColH-PD from C. histolyticum and ColA-CU from B. cereus strain ATCC14579. In addition, the compounds were tested on catalytic domains of three human MMPs, which are characterized by different depths of the S1′ binding pocket (MMP-1 (shallow), −2 (intermediate), and −3 (deep)). They were also tested against other important human off-targets, which are involved in gene expression and the processing of TNF-α; these include HDAC-3, -8, TACE (ADAM-17),[33],[34] and COX-1.

TACE (ADAM-17) = TACE (ADAM-17) (Homo sapiens, UniProt P78536); assay: Human off-target inhibition, TACE; assay type: biochemical
Method: as §1

ColQ1-CU [7] = biological target: T1, ColQ1-CU; assay type: biochemical, B. cereus; conditions: for Reversibility of inhibition, ColQ1-CU: rapid dilution
ColG-CU [8] = biological target: T2, ColG-CU (Hathewaya histolytica, UniProt Q9X721); assay: biochemical; assay type: biochemical, C. histolyticum; conditions: for inhibition at 100 µM: read-out: Percent inhibition of ColG-CU
ColH-PD [9] = biological target: T3, ColH-PD (Hathewaya histolytica, UniProt Q46085); assay type: biochemical, C. histolyticum
MMP-1 = biological target: T4, MMP-1 (Homo sapiens, UniProt P03956); assay: MMP inhibition assay, MMP-1; assay type: biochemical
T4 construct: catalytic domains of three human MMPs; purchased Sigma-Aldrich
T4 sequence (P03956 98-276 limits assumed): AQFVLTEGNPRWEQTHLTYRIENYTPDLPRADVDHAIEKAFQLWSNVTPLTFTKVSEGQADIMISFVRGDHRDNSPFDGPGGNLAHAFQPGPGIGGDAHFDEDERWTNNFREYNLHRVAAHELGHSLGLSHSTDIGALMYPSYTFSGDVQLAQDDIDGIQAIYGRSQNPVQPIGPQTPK
Method: as §1
(§2) The MMP inhibition assay (Sigma-Aldrich, Saint Louise, MO) was performed as previously reported and in accordance with the manufacturer’s instructions. The fluorescence signals were measured in a CLARIOstar plate reader (BMG LABTECH, Ortenberg, Germany) at a concentration of 100 μM.

COX-1 = COX-1 (Homo sapiens, UniProt P23219); assay: Human off-target inhibition, COX-1; assay type: biochemical
Method: as §1

in vitro [10] = conditions: human, HEK293 cells (embryonal kidney)
ColA-CU [11] = biological target: T5, ColA-CU (Bacillus cereus, UniProt Q81BJ6); assay: biochemical; assay type: biochemical, B. cereus strain ATCC14579; conditions: for inhibition at 100 µM: read-out: Percent inhibition of ColA-CU
[12] = tested on: B. cereus AH187 infection; assay type: in vivo, Galleria mellonella; conditions: for Increase in survival of infected larvae: 100 μM; for Survival of infected larvae vs control without inhibitor: 37 °C, 3 days
in vitro [13] = conditions: human, HepG2 cells (hepatocellular carcinoma)
ColA-CU [14] = biological target: T5, ColA-CU; assay type: biochemical, B. cereus; conditions: rapid dilution
MMP-3 = biological target: T6, MMP-3 (Homo sapiens, UniProt P08254); assay: MMP inhibition assay, MMP-3; assay type: biochemical
T6 construct: catalytic domains of three human MMPs; purchased Sigma-Aldrich
Method: as §1, §2

ColG-CU [15] = biological target: T2, ColG-CU; assay type: biochemical, C. histolyticum; conditions: rapid dilution
HDAC-8 = biological target: T7, HDAC-8 (Homo sapiens, UniProt Q9BY41); assay: Human off-target inhibition, HDAC-8; assay type: biochemical
T7 sequence (Q9BY41 1-377): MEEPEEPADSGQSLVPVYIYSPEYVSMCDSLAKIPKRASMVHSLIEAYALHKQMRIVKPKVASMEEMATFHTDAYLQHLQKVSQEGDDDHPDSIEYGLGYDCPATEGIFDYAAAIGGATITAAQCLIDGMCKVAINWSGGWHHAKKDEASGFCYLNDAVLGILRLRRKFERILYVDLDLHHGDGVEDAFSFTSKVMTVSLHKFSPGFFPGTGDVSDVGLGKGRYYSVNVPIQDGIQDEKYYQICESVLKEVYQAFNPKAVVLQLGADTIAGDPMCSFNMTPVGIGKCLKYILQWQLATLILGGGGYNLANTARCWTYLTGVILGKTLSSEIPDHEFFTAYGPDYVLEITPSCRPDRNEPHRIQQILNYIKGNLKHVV
Method: as §1

MMP-2 = biological target: T8, MMP-2 (Homo sapiens, UniProt P08253); assay: MMP inhibition assay, MMP-2; assay type: biochemical
T8 construct: catalytic domains of three human MMPs; purchased Sigma-Aldrich
Method: as §1, §2

ColH-PD [16] = biological target: T3, ColH-PD; assay: biochemical; assay type: biochemical, C. histolyticum; conditions: for inhibition at 100 µM: read-out: Percent inhibition of ColH-PD
ColQ1-CU [17] = biological target: T1, ColQ1-CU; assay type: binding, B. cereus; conditions: intact protein HPLC-MS, overnight treatment
[18] = tested on: Galleria mellonella larvae; assay: Galleria mellonella larvae treated with compound only in PBS; assay type: in vivo; conditions: no bacteria
Method: Figure 8 Survival analysis of Galleria mellonella larvae treated with Bacillus cereus AH187 with and without 14 and tiludronate disodium. Each curve represents results of three independent experiments; the statistical difference between groups treated with 100, 50, and 25 μM of compound 14 and B. cereus AH187 and with the group treated only with B. cereus AH187 is p < 0.0001, p = 0.0039, and p = 0.0173, respectively. The statistical difference between groups treated with 100 μM tiludronate disodium and with B. cereus AH187 is p = 0.0032 (log-rank test). The survival rate for the larvae treated with compound 14 and tiludronate disodium in PBS was 100%.
G. mellonella larvae were purchased from a fishing store. Injections were carried out using an LA120 syringe pump (Landgraf Laborsysteme, Langenhagen, Germany) equipped with 1 mL Injekt-F tuberculin syringes (B. Braun, Melsungen, Germany) and Sterican 0.30 × […], 30 G × 1.5 needles (B. Braun). The larvae were divided into five groups depending on their treatment: (i) sterile PBS, (ii) no injection, (iii) only compound, (iv) BC AH187 bacterial suspension, and (v) BC AH187 bacterial suspension with compound. Larvae were incubated at 37 °C for 3 days and inspected twice daily. The total larvae used in all three experiments were 40 larvae per group.

[19] = AH187, BHI medium, 37 °C, 48 h, 200–3 μM

T2 sequence (Q9X721 111-786): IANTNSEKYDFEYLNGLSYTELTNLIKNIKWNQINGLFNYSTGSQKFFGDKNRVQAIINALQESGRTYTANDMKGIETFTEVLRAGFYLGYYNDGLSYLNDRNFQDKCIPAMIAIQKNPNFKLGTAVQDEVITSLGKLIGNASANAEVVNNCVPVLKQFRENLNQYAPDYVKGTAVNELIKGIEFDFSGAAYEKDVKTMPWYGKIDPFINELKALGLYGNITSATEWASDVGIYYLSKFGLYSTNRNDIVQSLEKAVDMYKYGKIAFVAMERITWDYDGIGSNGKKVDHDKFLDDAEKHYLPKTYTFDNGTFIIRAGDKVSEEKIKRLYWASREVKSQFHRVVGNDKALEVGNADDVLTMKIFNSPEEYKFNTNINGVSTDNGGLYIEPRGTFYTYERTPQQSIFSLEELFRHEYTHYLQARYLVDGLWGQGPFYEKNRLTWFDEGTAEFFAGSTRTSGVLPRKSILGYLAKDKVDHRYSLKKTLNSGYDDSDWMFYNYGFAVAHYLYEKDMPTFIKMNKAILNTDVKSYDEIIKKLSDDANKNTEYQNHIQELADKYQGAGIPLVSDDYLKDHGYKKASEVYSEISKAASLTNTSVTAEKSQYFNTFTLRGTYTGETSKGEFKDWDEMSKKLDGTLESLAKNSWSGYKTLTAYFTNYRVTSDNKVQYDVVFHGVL
T3 sequence (Q46085 331-721 limits assumed): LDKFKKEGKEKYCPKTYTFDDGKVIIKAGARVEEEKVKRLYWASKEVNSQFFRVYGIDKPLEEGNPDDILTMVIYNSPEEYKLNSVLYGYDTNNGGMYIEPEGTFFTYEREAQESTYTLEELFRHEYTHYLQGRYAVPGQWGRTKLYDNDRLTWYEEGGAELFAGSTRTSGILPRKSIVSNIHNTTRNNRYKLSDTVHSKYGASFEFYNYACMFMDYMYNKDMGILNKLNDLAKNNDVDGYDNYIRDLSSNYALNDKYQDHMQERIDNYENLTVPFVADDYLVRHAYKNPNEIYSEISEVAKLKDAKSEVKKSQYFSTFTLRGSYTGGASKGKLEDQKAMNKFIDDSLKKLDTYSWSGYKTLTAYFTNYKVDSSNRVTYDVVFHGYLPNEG
T5 sequence (Q81BJ6 93-764): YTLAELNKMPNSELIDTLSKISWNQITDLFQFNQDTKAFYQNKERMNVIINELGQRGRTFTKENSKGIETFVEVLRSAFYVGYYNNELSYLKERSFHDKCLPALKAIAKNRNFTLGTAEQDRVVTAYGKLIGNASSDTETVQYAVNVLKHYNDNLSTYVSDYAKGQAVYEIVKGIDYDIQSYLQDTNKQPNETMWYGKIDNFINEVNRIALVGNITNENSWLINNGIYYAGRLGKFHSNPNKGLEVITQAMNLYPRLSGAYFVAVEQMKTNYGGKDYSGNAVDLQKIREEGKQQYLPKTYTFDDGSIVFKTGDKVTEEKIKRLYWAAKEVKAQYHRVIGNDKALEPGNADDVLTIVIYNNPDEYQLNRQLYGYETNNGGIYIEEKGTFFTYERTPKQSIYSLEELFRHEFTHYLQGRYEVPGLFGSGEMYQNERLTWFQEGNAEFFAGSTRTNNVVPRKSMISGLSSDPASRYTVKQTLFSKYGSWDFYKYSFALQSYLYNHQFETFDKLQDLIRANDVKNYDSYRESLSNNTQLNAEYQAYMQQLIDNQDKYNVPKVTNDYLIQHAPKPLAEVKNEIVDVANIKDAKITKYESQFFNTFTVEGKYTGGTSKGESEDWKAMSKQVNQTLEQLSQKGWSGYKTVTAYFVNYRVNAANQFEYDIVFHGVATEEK
T1 sequence (B9J3S4 94-765 limits assumed): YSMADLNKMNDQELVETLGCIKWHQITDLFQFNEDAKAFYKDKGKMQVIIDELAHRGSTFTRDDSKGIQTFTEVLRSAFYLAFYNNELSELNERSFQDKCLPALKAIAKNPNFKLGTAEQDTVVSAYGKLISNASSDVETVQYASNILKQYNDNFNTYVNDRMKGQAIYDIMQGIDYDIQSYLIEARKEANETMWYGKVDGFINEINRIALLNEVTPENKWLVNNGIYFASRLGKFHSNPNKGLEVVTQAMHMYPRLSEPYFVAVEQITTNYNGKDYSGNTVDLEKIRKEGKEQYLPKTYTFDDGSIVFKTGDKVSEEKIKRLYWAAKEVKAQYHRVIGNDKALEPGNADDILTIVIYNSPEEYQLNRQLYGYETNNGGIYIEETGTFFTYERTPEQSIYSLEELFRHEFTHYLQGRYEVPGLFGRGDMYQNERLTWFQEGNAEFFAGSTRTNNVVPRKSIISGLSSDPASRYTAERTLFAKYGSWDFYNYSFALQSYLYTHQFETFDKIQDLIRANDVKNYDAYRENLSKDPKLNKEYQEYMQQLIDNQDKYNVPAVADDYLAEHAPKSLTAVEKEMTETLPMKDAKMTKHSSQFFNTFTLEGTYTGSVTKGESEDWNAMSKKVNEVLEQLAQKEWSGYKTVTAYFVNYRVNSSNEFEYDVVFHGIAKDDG
HDAC-3, sequence (O15379 whole entry, the tested form may be a part): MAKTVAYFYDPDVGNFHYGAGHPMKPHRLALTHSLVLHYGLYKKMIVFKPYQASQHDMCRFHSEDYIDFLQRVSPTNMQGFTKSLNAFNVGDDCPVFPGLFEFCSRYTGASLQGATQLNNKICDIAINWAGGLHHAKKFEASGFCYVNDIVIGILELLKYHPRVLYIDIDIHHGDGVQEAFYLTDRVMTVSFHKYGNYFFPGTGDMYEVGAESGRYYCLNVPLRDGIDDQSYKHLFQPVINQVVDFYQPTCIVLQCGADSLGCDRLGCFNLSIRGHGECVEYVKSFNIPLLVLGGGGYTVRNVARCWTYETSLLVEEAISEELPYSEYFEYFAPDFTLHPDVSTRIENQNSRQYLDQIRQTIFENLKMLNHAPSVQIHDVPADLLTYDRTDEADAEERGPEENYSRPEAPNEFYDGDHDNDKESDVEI
HDAC-3, sequence (Q9Y618 395-489 partner limits assumed): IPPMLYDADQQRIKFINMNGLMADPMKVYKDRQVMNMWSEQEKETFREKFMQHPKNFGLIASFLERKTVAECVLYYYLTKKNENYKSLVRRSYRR
ColQ1-FL, sequence (B9J3S4 94-965 limits assumed): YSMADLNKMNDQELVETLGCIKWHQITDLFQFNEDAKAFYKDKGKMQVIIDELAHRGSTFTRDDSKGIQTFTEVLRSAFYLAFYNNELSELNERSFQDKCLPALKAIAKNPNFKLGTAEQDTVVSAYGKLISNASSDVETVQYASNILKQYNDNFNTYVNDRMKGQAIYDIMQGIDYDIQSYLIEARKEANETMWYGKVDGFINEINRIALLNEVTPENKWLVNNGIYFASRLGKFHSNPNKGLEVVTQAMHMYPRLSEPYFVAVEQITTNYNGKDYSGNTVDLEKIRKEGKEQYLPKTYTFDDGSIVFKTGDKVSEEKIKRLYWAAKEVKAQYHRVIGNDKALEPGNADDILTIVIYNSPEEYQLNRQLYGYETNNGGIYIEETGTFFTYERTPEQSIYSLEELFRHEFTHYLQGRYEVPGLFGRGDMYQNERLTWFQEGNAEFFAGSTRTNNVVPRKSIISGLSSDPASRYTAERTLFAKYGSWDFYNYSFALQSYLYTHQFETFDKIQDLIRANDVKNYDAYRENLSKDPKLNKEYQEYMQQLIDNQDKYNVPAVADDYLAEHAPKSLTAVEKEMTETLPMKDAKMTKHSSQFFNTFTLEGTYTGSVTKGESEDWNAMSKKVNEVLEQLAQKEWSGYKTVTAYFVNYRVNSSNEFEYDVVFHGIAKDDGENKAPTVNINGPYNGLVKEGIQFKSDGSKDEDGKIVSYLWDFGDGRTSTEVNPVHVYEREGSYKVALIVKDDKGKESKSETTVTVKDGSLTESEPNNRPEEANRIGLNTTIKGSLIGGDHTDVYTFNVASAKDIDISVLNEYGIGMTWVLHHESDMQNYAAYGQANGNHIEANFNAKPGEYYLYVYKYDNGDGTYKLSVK
T8 sequence (P08253 110-444 limits assumed): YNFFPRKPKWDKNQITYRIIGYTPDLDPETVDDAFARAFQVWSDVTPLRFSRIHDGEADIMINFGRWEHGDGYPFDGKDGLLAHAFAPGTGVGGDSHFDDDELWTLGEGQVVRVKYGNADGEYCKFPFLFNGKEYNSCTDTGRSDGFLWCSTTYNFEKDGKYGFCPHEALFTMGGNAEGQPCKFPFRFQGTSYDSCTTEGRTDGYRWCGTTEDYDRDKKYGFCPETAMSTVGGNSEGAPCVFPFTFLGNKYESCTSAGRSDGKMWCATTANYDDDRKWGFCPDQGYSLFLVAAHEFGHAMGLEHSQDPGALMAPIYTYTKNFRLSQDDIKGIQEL
T6 sequence (P08254 100-272 limits assumed): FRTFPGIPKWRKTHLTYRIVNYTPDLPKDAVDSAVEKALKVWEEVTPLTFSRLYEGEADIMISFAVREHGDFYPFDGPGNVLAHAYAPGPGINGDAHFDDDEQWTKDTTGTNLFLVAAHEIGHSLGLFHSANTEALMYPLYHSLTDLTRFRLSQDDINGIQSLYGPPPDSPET
TACE (ADAM-17), sequence (P78536 215-824): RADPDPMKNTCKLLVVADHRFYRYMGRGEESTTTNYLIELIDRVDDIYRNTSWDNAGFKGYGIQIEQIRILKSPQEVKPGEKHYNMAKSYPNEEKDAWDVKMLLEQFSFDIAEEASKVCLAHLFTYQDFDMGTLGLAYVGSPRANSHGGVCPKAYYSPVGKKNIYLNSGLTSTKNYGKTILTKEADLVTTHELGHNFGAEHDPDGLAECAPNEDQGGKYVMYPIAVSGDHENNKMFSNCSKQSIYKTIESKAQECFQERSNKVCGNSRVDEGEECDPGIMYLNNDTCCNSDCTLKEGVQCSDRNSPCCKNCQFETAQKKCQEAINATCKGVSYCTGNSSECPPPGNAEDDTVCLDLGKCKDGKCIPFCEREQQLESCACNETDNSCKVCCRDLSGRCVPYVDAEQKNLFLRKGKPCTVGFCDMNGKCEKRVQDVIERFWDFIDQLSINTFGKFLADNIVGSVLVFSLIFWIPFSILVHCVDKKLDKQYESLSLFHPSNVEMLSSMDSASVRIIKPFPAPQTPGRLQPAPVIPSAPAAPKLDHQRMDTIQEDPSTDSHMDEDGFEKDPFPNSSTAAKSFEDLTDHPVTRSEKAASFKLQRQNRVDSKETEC

## CC(=O)c1ccc(NC(=O)CS)cc1 [Compound 4b]
ColH; recently identified inhibitors
  IC50: 0.017 µM

## CC(=O)c1ccc(N2C(=O)CC(S)C2=O)cc1 (centres unmarked) [Compound 5]
ColH; 100 μM
  % of inhibition at 100 μM (ColH): 96%

## O=P(O)(O)c1nc2ccc(Br)cc2nc1P(=O)(O)O [Compound 10, (6-Bromoquinoxaline-2,3-diyl)bis(phosphonic acid)]
[1]; B. cereus infection, 5 h
  Effect on cell morphology and ECM collagen content of infected NHDF cells: smaller effect at all concentrations tested (except for 10, which resulted in higher cell viability and attachment at 100 μM)
B. cereus AH187; [19]
  MIC50: 200 µM (≈ 73.8 µg/mL)
ColQ1-FL
  Protection of Col I chains from cleavage by ColQ1-FL: showed inhibition only at 12.5 μM
[2]
  Inhibitory effect on gelatinolytic activity of secreted collagenases: inhibited the collagenase activity toward gelatin only marginally at 100 μM
[3]
  TEER of infected MDCK II cells: failed to sustain the TEER of the infected cells
ColQ1-CU [4]
  IC50: 2.5 ± 0.2 µM

## O=P(O)(O)c1nc2ccc(-c3ccc(Cl)cc3)cc2nc1P(=O)(O)O [Compound 15, (6-(4-Chlorophenyl)quinoxaline-2,3-diyl)bis(phosphonic acid)]
In vitro [5]
  IC50: > 200 µM
In vitro [6]
  IC50: > 200 µM
HDAC-3
  IC50: > 100 µM
TACE (ADAM-17)
  IC50: > 100 µM
ColQ1-CU [7]; 30 min preincubation at 10-fold IC50, 100-fold dilution
  Residual activity after rapid dilution: less than 9%
ColQ1-CU [7]
  Reversibility of inhibition, ColQ1-CU: irreversible or very slowly dissociating inhibitors
ColG-CU [8]
  inhibition at 100 µM: 70 ± 8%
ColH-PD [9]
  Reversibility of inhibition, ColH: reversed compared to ColA
MMP-1
  IC50: > 100 µM
COX-1
  IC50: > 100 µM
In vitro [10]
  IC50: > 100 µM
[1]; B. cereus infection, 5 h
  Concentration showing dose-dependent effects on NHDF morphology, fibrillar ECM collagen content and LDH release: ≥ 100 μM
ColA-CU [11]
  inhibition at 100 µM: 86 ± 8%
B. cereus AH187; [19]
  MIC50: 100 µM (≈ 40.1 µg/mL)
[12]; 25 μM
  Effect on survival of infected larvae: reduced effect
[12]
  Increase in survival of infected larvae: about 35%
  Survival of infected larvae vs control without inhibitor: ameliorated the survival of the larvae in a dose-dependent manner
In vitro [13]
  IC50: > 100 µM
ColA-CU [14]
  Reversibility of inhibition, ColA-CU: progress curve typical for slowly dissociating inhibitors
ColQ1-FL
  Protection of Col I chains from cleavage by ColQ1-FL: inhibited the collagenase activity at all concentrations tested
MMP-3
  IC50: > 100 µM
ColG-CU [15]
  Reversibility of inhibition, ColG: rapidly reversible inhibitors
[2]
  Inhibitory effect on gelatinolytic activity of secreted collagenases: clear dose-dependent inhibitory effect on gelatin turnover
HDAC-8
  IC50: > 100 µM
MMP-2
  IC50: > 100 µM
[3]
  TEER of infected MDCK II cells: preserve the TEER value
ColH-PD [16]
  inhibition at 100 µM: 97 ± 5%
ColQ1-CU [4]
  IC50: 10.5 µM

## CC(=O)Nc1ccccc1OCc1cn(CCNC(=O)C(Cc2ccccc2)C(=O)NO)nn1 (centres unmarked) [Compound 33, N-[2-[4-[(2-Acetamidophenoxy)methyl]triazol-1-yl]ethyl]-2-benzyl-3-(hydroxyamino)-3-oxo-propanamide]
ColQ1-CU [7]
  Reversibility of inhibition, ColQ1-CU: rapidly reversible inhibitors
ColG-CU [8]
  Ki: 18.4 ± 0.6 µM
ColH-PD [9]
  Reversibility of inhibition, ColH: rapidly reversible inhibitors
[1]; B. cereus infection, 5 h
  Effect on cell morphology and ECM collagen content of infected NHDF cells: neither able to rescue cell morphology nor able to maintain the collagen content of the ECM
ColA-CU [11]
  Ki: 4.7 ± 0.3 µM
ColA-CU [14]
  Reversibility of inhibition, ColA-CU: rapidly reversible inhibitors
ColG-CU [15]
  Reversibility of inhibition, ColG: rapidly reversible inhibitors
[2]
  Inhibitory effect on gelatinolytic activity of secreted collagenases: no inhibitory effect on the collagenase in the zymography at all tested concentrations; also recorded: no inhibition of the collagenase in the gelatin zymography was detected
ColH-PD [16]
  Ki: 1.7 ± 0.2 µM
ColQ1-CU [4]
  IC50: 1.6 ± 0.1 µM
  Ki: 0.82 ± 0.07 µM

## CNC(=O)[C@H](Cc1c[nH]c2ccccc12)NC(=O)[C@@H](CC(=O)NO)CC(C)C [Ilomastat, reference compound]
ColQ1-CU [17]
  Covalent modification of ColQ1-CU: No molecular masses displayed a mass shift indicating a covalently bound inhibitor

## O=P([O-])(O)C(Sc1ccc(Cl)cc1)P(=O)([O-])O.[Na+].[Na+] [Tiludronate disodium, reference compound]
HDAC-3
  IC50: > 100 µM
TACE (ADAM-17)
  IC50: > 100 µM
ColG-CU [8]
  inhibition at 100 µM: 28 ± 7%
MMP-1
  IC50: 50 ± 10 µM
COX-1
  IC50: > 100 µM
[1]
  Concentration showing dose-dependent effects on NHDF morphology, fibrillar ECM collagen content and LDH release: ≥ 100 μM
ColA-CU [11]
  inhibition at 100 µM: 72 ± 2%
B. cereus AH187; AH187, 48 h
  MIC50: 200 µM
[12]
  Increase in survival of infected larvae: 40%
  Survival of infected larvae vs control without inhibitor: ameliorated the survival of the larvae in a dose-dependent manner
MMP-3
  IC50: > 100 µM
[18]
  Survival rate of larvae treated with compound in PBS: 100%
[2]
  Concentration giving complete inhibition of gelatinolytic activity: 100 µM
HDAC-8
  IC50: > 100 µM
MMP-2
  IC50: > 100 µM
ColH-PD [16]
  inhibition at 100 µM: 91 ± 2%
ColQ1-CU [4]
  inhibition at 100 µM: 63 ± 3%
